Measurements as given in PMC6263107 (Journal of Enzyme Inhibition and Medicinal Chemistry, 2018).
Where “and” joins values, the source holds several entries; their conditions need not be identical. Equal entries are not always repeated. Where two headings read alike, the source gives them in different places.

What was measured:
[1] = Oxygen radical absorbance capacity assay (ORAC-FL); settings: ORAC-FL, Trolox equivalents
Experimental: The antioxidant activity of KTs was determined using the ORAC-FL method described by Dávalos et al.[30] using fluorescein as a fluorescent probe with minor modification. Briefly, fluorescein and antioxidant were incubated in a black 96-well microplate (Nunc) for 15 min at 37 °C. The 2,2’-azobis(amidinopropane) dihydrochloride (AAPH) was then added quickly using the built-in injector of Varioskan Flash plate reader (Thermo Scientific).
Results are expressed in the Trolox equivalents (TE) unit in relation to radical scavenging properties of Trolox.

in vitro = format: cell-based; settings: human
Experimental: (§1) The culture medium was refreshed after 24 h of incubation and 100 µl of six different concentrations (1–1000 µM) of test compounds or DMSO (0.1%) were then added. The cell viability was monitored by colourimetric assay with 3-[4,5-dimethylthiazol-2-yl]-2,5-diphenyl-tetrazolium bromide (MTT).
(§2) In this sense, all new KTs were submitted to the in vitro cell viability test (MTT assay) using human hepatocellular carcinoma cell line (HepG2)[26], as the most accepted probe to evaluate hepatotoxic effects. For this experiment, six different concentrations from 1 to 1000 µM were used.

EeAChE = EeAChE (Electrophorus electricus, UniProt O42275); assay: biochemical; settings: mean ± SEM
Experimental: (§3) Ellman’s protocol was followed to perform the anticholinesterasic activity. Briefly, the reaction was carried out in a final volume of 3 ml of a phosphate-buffered solution (0.1 M) at pH =8.0 containing (2.625 µl, 0.35 mM) of 5,5’-dithiobis-2-nitrobenzoic acid (DTNB), 40 µl 1% w/v Bovine Albumin Serum phosphate-buffered solution (BSA), (29 µl, 0.035 U/ml) of EeAChE or (60 µl, 0.05 U/ml) of eqBuChE, and 3 µl of tested compound, which were incubated for 10 min. Then, the acetylthiocholine iodide or butyrylthiocholine was added, and the reaction was incubated for additional 15 min. The activity in absence of compound was used as control.

eqBuChE = molecular target: T1, eqBuChE (Equus caballus, UniProt P81908); assay: biochemical; settings: for IC50: mean ± SEM; for inhibition at 10 µM: Table 2 footnote b
T1 construct: serum horse BuChE (eqBuChE); from tissue; host or cells: horse serum
Experimental: as §3

hAChE = molecular target: T2, hAChE (Homo sapiens, UniProt P22303); assay: biochemical
T2 construct: 10 µl of cholinesterase obtained from human erythrocyte hemolyzate, out of blood samples; from tissue; host or cells: human erythrocyte hemolysate from blood samples
Experimental: This blend was preincubated for 5 min and 20 µl of 0.01 M substrate (ATCh or BTCh) was added to initiate the reaction. […] The IC50 values are expressed as a mean ± SEM.
Next, as planned at the beginning of the project, the analysis of the antioxidant capacity of KT 2a–d, 2f–h, and 2l was carried out.

HepG2 cells = assay: in vitro; format: cell-based; settings: concentrations up to 1000 µM
Experimental: as §1, §2

SH-SY5Y cells [2] = assay: Neuroprotection against oligomycin/rotenone-induced cell death (MTT); format: cell-based, human; settings: O 10 µM / R 30 µM
Experimental: (§4) SH-SY5Y cell culture and treatment with compounds 2b–d and 2f. The cultures of human SH-SY5Y neuroblastoma cells kept under a CO2/air (5%/95%) humidified atmosphere at 37 °C for 24 h were treated with 100 µl of the test compounds or DMSO (0.1%) in DMEM/F12 (1:1) medium supplemented with 1% fetal bovine serum, 1X non-essential amino acids, 100 units/ml penicillin and 10 mg/ml streptomycin. Treatment medium was renewed every day for up to 48 h of treatment. MTT assay was then performed.
(§5) SH-SY5Y cells were seeded in 96-well culture plates at a density of 8 × 10^4 cells per well in DMEM/F12 (1:1) medium supplemented with 10% fetal bovine serum, 1X non-essential amino acids, 100 units/mL penicillin and 10 mg/mL streptomycin (Dutscher, France). After 24 h of incubation, the cultures were treated with 100 µl of the test compounds or DMSO (0.1%) in the same medium. Following 24 h, the cells were co-incubated with oligomycin A (10 µM)/rotenone (30 µM) (Sigma, France) or Aβ 1–40 (30 µM) with or without the tested compounds 2b–d and 2f at nontoxic concentrations against cells for an additional period of 24 h. MTT assay was then performed to determine the % of cell viability.
(§6) The ability to prevent the human neuroblastoma cell line SH-SY5Y cell death induced by toxic insults such as Αβ 1–40, implicated in ROS production and apoptosis-related signalling pathways, and oligomycin/rotenone (O/R)[39], was then assayed to determine the neuroprotective capacity of the four less hepatotoxic KTs 2b–d and 2f at nontoxic concentration against SH-SY5Y 3 and 10 µM, using melatonin and KA as reference molecules. For the evaluation of the neuroprotective effect, the cytotoxicity of O/R (10 µM/30 µM) on SH-SY5Y cell viability was determined as well as the toxicity of the selected KTs 2b–d and 2f at.

SH-SY5Y cells [3] = assay: Neuroprotection against Aβ1–40 peptide-induced cell death (MTT); format: cell-based, human; settings: for Aβ1–40 (%) neuroprotection: Aβ 1–40 30 µM
Experimental: as §4, §5, §6

SH-SY5Y cells [4] = test system: SH-SY5Y cells; set-up: method as in PMID 27736061; settings: O 10 µM / R 30 µM, cited from earlier work
SH-SY5Y cells [5] = test system: SH-SY5Y cells; set-up: method as in PMID 27736061; settings: Aβ 1–40 30 µM, cited from earlier work
[6] = HepG2 cells, 1 µM, percent of cell viability vs DMSO-treated control, read-out: HepG2 cell viability
[7] = HepG2 cells, 3 µM, percent of cell viability vs DMSO-treated control, read-out: HepG2 cell viability
[8] = HepG2 cells, 10 µM, percent of cell viability vs DMSO-treated control, read-out: HepG2 cell viability
[9] = HepG2 cells, 30 µM, percent of cell viability vs DMSO-treated control, read-out: HepG2 cell viability
[10] = HepG2 cells, 100 µM, percent of cell viability vs DMSO-treated control, read-out: HepG2 cell viability
[11] = HepG2 cells, 300 µM, percent of cell viability vs DMSO-treated control, read-out: HepG2 cell viability
[12] = HepG2 cells, 1000 µM, percent of cell viability vs DMSO-treated control, read-out: HepG2 cell viability

T2 sequence (P22303 32-617 isoform P22303-2 limits assumed): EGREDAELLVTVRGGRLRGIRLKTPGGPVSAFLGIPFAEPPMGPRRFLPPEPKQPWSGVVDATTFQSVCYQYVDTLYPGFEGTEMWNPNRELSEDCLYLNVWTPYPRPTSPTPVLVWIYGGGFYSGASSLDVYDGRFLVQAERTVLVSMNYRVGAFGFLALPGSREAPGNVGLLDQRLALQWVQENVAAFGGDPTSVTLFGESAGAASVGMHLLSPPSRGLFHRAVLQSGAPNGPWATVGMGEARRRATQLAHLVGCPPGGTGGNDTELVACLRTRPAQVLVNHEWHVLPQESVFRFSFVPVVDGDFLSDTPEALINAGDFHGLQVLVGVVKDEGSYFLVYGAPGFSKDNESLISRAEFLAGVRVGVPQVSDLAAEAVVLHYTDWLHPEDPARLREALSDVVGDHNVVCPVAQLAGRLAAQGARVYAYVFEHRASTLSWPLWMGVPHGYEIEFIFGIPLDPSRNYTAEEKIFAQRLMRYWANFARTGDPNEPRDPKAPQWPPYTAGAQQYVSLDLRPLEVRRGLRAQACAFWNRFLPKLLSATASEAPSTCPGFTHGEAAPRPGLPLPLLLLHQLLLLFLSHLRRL
Chain of EeAChE (O42275 24-633): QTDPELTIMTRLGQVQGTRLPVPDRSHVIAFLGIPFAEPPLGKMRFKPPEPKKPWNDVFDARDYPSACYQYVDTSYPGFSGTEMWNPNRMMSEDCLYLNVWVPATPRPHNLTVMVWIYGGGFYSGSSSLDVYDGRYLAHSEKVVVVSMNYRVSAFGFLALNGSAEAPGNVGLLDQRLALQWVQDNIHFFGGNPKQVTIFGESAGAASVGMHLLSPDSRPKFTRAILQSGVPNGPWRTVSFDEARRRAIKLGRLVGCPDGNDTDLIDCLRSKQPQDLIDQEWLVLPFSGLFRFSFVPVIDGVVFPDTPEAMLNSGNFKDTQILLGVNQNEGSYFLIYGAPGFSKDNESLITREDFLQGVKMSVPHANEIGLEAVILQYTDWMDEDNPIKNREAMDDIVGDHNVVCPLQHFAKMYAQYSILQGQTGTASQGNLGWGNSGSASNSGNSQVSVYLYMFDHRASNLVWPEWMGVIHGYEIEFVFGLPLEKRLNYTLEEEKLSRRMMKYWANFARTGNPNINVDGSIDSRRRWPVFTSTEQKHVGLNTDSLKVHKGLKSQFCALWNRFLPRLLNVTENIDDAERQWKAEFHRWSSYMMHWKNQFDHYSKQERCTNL
T1 sequence (P81908 whole entry): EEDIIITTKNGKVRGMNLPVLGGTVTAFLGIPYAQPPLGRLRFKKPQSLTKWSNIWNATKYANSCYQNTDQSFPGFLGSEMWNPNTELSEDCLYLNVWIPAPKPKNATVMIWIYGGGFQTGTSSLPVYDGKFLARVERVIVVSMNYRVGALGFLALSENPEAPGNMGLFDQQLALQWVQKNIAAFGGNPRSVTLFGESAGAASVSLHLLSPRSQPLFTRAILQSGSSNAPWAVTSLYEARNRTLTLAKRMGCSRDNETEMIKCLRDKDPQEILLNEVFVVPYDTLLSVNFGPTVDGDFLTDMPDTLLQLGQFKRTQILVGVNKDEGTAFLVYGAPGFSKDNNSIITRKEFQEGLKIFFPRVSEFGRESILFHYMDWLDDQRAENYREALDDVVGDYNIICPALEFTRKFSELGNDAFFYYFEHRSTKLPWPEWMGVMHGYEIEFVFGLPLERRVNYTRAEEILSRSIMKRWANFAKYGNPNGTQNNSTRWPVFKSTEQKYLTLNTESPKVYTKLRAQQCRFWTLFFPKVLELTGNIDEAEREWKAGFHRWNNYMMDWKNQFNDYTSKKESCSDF

SMILES | ORAC [1] | viability at 1 µM (in vitro; [6]) | viability at 3 µM (in vitro; [7]) | viability at 10 µM (in vitro; [8]) | viability at 30 µM (in vitro; [9]) | viability at 100 µM (in vitro; [10]) | viability at 300 µM (in vitro; [11]) | viability at 1000 µM (in vitro; [12]) | IC50 (EeAChE) | IC50 (eqBuChE) | further results
COc1cc(/C=C/C(=O)O)ccc1O [FA, ferulic acid, reference compound] | 3.74±0.22 TE and 3.74 TE | – | – | – | – | – | – | – | – | – | –
Nc1c2c(nc3c1C(c1ccccc1)c1oc(CO)cc(=O)c1O3)CCCC2 (stereo not drawn) [KT2a] | 2.58±0.22 TE and 2.58 TE | 96.8 ± 1% | 94.9 ± 2.9% | 99.3 ± 1.7% | 105 ± 5.3% | 108 ± 5% | 95 ± 3.4% | 50.3 ± 5.7% | 3.3 ± 0.09 µM | 12.15 ± 0.09 µM | inhibition at 10 µM (hAChE; at 10 μM, Table 2 footnote b): < 50%
Cc1ccc(C2c3oc(CO)cc(=O)c3Oc3nc4c(c(N)c32)CCCC4)cc1 (stereo not drawn) [KT2b] | 2.96±0.18 TE | 105 ± 3.1% | 110 ± 3.2% | 105 ± 1.9% | 107 ± 2.9% | 113 ± 8.4% | 108 ± 5.7% | 87.9 ± 5.2% | 1.4 µM | 10.09 ± 0.09 µM | HepG2 toxicity (HepG2 cells): no significant toxicity; IC50 (hAChE; mean ± SEM): 13.7 ± 1.7 µM; O/R (%) neuroprotection (SH-SY5Y cells [2]; compound 3 µM): 19.66 ± 0.07%; O/R (%) neuroprotection (SH-SY5Y cells [2]; compound 10 µM): 3.65 ± 0.07%; Aβ1–40 (%) neuroprotection (SH-SY5Y cells [3]; compound 3 µM): 27.85 ± 0.15 %; Aβ1–40 (%) neuroprotection (SH-SY5Y cells [3]; compound 10 µM): np; neuroprotective activity (SH-SY5Y cells [3]; on any of the toxic insults investigated (O/R, Aβ 1–40)): very poor neuroprotective activity
COc1ccccc1C1c2oc(CO)cc(=O)c2Oc2nc3c(c(N)c21)CCCC3 (stereo not drawn) [KT2c] | 6.05±0.41 TE and 6.05 TE | 94.7 ± 2.4% | 103 ± 2.8% | 99 ± 1.1% | 98.2 ± 2.2% | 96.1 ± 1.5% | 88.5 ± 7.1% | 70.7 ± 7.7% | 2.39 ± 0.02 µM | – | inhibition at 10 µM (eqBuChE): < 50%; inhibition at 10 µM (hAChE; at 10µM, Table 1S footnote c): < 50%; O/R (%) neuroprotection (SH-SY5Y cells [2]; compound 3 µM): 12.18 ± 0.08%; O/R (%) neuroprotection (SH-SY5Y cells [2]; compound 10 µM): 16.56 ± 0.02%; Aβ1–40 (%) neuroprotection (SH-SY5Y cells [3]; compound 3 µM): np; Aβ1–40 (%) neuroprotection (SH-SY5Y cells [3]; compound 10 µM): np
COc1ccc(C2c3oc(CO)cc(=O)c3Oc3nc4c(c(N)c32)CCCC4)cc1 (stereo not drawn) [KT2e] | 4.46±0.27 TE | 95.5 ± 5.5% | 96.1 ± 7.1% | 95.9 ± 5.6% | 98.3 ± 3.8% | 86.1 ± 3.8% | 70.9 ± 4.5% | 41.7 ± 3% | 1.14 ± 0.02 µM | 7.57 ± 0.13 µM | –
Nc1c2c(nc3c1C(c1ccccc1F)c1oc(CO)cc(=O)c1O3)CCCC2 (stereo not drawn) [KT2f] | 3.85±0.42 TE | 108 ± 6.2% | 96.1 ± 2.5% | 99.2 ± 2.8% | 102 ± 7.1% | 101 ± 9.2% | 95.3 ± 4.1% | 64 ± 8% | 2.11 ± 0.01 µM | 6.69 ± 0.1 µM | inhibition at 10 µM (hAChE; at 10 μM, Table 2 footnote b): < 50%; O/R (%) neuroprotection (SH-SY5Y cells [2]; compound 3 µM): 16.50 ± 0.07%; O/R (%) neuroprotection (SH-SY5Y cells [2]; compound 10 µM): np; Aβ1–40 (%) neuroprotection (SH-SY5Y cells [3]; compound 3 µM): 25.10 ± 0.06 %; Aβ1–40 (%) neuroprotection (SH-SY5Y cells [3]; compound 10 µM): 4.1 ± 0.04%
Nc1c2c(nc3c1C(c1cccc(F)c1)c1oc(CO)cc(=O)c1O3)CCCC2 (stereo not drawn) [KT2g] | 4.34±0.17 TE | 101 ± 7.1% | 96.5 ± 7.4% | 99.1 ± 3.8% | 109 ± 6.1% | 103 ± 6.4% | 90.5 ± 9.6% | 62.6 ± 9.7% | 2.14 ± 0.12 µM | 4.54 ± 0.2 µM | –
Nc1c2c(nc3c1C(c1ccc(F)cc1)c1oc(CO)cc(=O)c1O3)CCCC2 (stereo not drawn) [KT2h] | 4.69±0.18 TE | 97.4 ± 2.3% | 95.9 ± 3.8% | 100 ± 1.5% | 101.4 ± 0.6% | 102 ± 1.8% | 87.2 ± 6.7% | 55.3 ± 6% | 3.44 ± 0.04 µM | – | inhibition at 10 µM (eqBuChE): < 50%
Nc1c2c(nc3c1C(c1ccccc1Cl)c1oc(CO)cc(=O)c1O3)CCCC2 (stereo not drawn) [KT2i] | 4.84±0.06 TE | 98.6 ± 1.4% | 100 ± 1.9% | 99.4 ± 1.2% | 105 ± 2.6% | 95.2 ± 4.7% | 64.4 ± 6.3% | 23.1 ± 6% | 0.76 ± 0.09 µM | 8.54 ± 0.12 µM | –
Nc1c2c(nc3c1C(c1cccc(Cl)c1)c1oc(CO)cc(=O)c1O3)CCCC2 (stereo not drawn) [KT2j] | 4.67±0.31 TE | 97.6 ± 2% | 101 ± 5.4% | 105 ± 5.5% | 99.6 ± 2.4% | 102 ± 6.9% | 52.7 ± 8.3% | 14.5 ± 6.4% | 0.82 ± 0.05 µM | 4.19 ± 0.11 µM | –
Nc1c2c(nc3c1C(c1cccc(Br)c1)c1oc(CO)cc(=O)c1O3)CCCC2 (stereo not drawn) [KT2k] | 2.61±0.11 TE | 101 ± 4.8% | 104 ± 8.9% | 94.9 ± 2.6% | 95.8 ± 2.5% | 101 ± 3.1% | 60.1 ± 10.4% | 37.2 ± 5.9% | 0.74 ± 0.08 µM | 3.9 ± 0.09 µM | –
Nc1c2c(nc3c1C(c1c(Cl)cccc1Cl)c1oc(CO)cc(=O)c1O3)CCCC2 (stereo not drawn) [KT2l] | 6.14±0.40 TE and 6.14 TE | 99.9 ± 2.7% | 102 ± 2.3% | 102 ± 2.6% | 99.9 ± 3.2% | 88.9 ± 8% | 68.3 ± 9.3% | 50.5 ± 7.5% | 2.12 ± 0.09 µM | – | inhibition at 10 µM (eqBuChE): < 50%
COc1ccc2[nH]cc(CCNC(C)=O)c2c1 [Melatonin, melatonin] | – | – | – | – | – | – | – | – | – | – | O/R (%) neuroprotection (SH-SY5Y cells [4]; compound 1 µM): 50.1 ± 3.42 %; O/R (%) neuroprotection (SH-SY5Y cells [4]; compound 3 µM): 59.1 ± 4.50 %; Aβ1–40 (%) neuroprotection (SH-SY5Y cells [5]; compound 1 µM): 35.5 ± 4.1 %; Aβ1–40 (%) neuroprotection (SH-SY5Y cells [5]; compound 3 µM): 60.2 ± 3.57 %
Nc1c2c(nc3ccccc13)CCCC2 [Tacrine, tacrine, reference compound] | 0.2 ± 0.1 TE | – | – | – | – | – | – | – | – | – | viability at 1 µM (in vitro): 112 ± 4%; viability at 3 µM (in vitro): 114 ± 4.8%; viability at 10 µM (in vitro): 108 ± 3.4%; viability at 30 µM (in vitro): 110 ± 4.2%; viability at 100 µM (in vitro): 102 ± 2.4%; viability at 300 µM (in vitro): 42.4 ± 2%; viability at 1000 µM (in vitro): 10.9 ± 2%
